In ChEMBL document CHEMBL1909046, “DrugMatrix in vitro pharmacology data”:

Assays:
[1] = DRUGMATRIX: Imidazoline I2, Central radioligand binding (ligand: [3H] Idazoxan); type: cell membranes, Rattus norvegicus, Wistar, Cerebral cortex, Membrane; conditions: Not Active = under 50% inhibition at 10 µM
[2] = target: T1, Neutrophil elastase (Homo sapiens, UniProt P08246); type: tissue-based;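 also: inhibition of neutrophil elastase enzyme activity, measured with a p-nitroanilide-linked peptide substrate; in other assays of this panel Not Active means under 50% inhibition at 10 µM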
T1 sequence (P08246 whole entry): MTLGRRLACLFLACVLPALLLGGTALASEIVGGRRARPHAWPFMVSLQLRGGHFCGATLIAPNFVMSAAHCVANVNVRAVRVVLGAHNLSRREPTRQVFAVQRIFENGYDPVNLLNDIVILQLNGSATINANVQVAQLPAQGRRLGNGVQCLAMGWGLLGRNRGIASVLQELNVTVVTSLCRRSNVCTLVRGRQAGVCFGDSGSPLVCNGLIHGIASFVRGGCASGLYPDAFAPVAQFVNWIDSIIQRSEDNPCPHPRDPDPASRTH

[3] = target: Aldo-keto reductase family 1 member B1 (Rattus norvegicus, UniProt P07943); assay: biochemical; type: tissue-based, Lens of camera-type eye;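 also: inhibition of aldose reductase enzyme activity, measured with DL-glyceraldehyde as the substrate; in other assays of this panel Not Active means under 50% inhibition at 10 µM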
[4] = target: Insulin receptor (Rattus norvegicus, UniProt P15127); type: cell membranes, Wistar, Liver, Membrane; also: in other assays of this panel Not Active means under 50% inhibition at 10 µM
Sequence of Insulin receptor (P15127 27-759 limits assumed): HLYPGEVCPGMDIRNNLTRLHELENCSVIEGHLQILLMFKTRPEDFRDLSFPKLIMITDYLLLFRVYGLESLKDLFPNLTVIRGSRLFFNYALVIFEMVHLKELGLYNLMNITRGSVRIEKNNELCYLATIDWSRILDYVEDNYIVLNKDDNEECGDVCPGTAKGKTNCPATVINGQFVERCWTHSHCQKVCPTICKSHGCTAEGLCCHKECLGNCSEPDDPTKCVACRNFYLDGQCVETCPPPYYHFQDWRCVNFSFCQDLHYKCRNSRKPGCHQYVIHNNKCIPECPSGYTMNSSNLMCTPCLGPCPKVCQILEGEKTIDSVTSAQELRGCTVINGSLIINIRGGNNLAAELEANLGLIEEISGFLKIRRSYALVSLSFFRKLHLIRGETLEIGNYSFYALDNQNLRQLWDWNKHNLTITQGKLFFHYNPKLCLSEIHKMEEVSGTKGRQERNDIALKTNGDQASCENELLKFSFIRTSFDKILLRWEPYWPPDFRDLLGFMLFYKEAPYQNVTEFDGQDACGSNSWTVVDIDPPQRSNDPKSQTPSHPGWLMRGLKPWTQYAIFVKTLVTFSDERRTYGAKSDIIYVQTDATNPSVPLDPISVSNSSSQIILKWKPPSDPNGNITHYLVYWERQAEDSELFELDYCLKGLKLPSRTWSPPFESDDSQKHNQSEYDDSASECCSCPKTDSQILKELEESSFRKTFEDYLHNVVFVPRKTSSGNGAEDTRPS
Sequence of Insulin receptor (P15127 764-1383 limits assumed): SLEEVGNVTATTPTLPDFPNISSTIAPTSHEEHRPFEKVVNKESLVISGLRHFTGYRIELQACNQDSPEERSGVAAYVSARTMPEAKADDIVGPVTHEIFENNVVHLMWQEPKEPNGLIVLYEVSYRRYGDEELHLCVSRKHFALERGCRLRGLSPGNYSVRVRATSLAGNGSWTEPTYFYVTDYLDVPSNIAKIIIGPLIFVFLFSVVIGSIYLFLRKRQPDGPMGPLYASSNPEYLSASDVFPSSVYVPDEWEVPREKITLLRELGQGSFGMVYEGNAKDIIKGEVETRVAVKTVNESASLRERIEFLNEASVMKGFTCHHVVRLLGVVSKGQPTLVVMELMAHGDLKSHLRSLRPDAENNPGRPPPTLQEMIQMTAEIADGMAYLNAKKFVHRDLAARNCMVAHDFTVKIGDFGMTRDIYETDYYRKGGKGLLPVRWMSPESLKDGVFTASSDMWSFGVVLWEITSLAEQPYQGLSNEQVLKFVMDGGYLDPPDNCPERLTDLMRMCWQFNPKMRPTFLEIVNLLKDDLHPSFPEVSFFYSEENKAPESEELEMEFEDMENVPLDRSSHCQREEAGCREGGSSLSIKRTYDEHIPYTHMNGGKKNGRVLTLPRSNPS

[5] = target: Prostaglandin G/H synthase 1 (Homo sapiens, UniProt P23219); assay: biochemical; type: tissue-based, Platelet;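 also: inhibition of COX-1 enzyme activity, with arachidonic acid supplied as substrate; in other assays of this panel Not Active means under 50% inhibition at 10 µM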
Sequence of Prostaglandin G/H synthase 1 (P23219 whole entry): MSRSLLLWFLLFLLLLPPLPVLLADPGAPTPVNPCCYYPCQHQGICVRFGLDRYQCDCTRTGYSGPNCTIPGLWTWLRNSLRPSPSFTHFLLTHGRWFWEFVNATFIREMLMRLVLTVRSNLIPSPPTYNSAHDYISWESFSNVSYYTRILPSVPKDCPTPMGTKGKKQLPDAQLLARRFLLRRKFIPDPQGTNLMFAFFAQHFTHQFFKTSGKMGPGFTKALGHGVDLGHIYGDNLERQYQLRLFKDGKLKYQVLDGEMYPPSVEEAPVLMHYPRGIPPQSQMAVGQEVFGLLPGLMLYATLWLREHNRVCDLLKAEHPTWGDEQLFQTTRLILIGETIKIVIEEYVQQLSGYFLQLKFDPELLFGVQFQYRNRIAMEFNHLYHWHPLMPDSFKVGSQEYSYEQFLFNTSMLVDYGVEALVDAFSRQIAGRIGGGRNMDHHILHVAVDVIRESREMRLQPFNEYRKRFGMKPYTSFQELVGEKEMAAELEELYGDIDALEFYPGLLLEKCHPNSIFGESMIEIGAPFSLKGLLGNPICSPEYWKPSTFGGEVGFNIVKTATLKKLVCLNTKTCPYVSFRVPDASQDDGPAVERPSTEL

[6] = target: T2, Vasoactive intestinal polypeptide receptor 1 (Homo sapiens, UniProt P32241); type: cell membranes, Membrane; conditions: ht-29; also: in other assays of this panel Not Active means under 50% inhibition at 10 µM
T2 sequence (P32241 whole entry): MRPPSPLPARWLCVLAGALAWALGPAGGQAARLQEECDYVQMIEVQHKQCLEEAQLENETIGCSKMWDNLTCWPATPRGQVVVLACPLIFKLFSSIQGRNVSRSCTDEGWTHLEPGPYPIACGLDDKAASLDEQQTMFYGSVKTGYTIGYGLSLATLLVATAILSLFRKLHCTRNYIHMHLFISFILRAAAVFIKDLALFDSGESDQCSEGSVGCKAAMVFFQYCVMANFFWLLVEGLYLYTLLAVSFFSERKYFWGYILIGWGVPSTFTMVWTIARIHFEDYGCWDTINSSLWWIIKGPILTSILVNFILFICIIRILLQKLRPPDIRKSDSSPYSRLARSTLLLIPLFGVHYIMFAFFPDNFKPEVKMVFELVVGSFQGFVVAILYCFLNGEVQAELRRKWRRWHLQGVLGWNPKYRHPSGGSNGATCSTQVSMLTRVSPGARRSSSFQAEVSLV

[7] = target: Carbonic anhydrase 2 (Homo sapiens, UniProt P00918); assay: DRUGMATRIX: Carbonic Anhydrase II enzyme inhibition (substrate: 4-Nitrophenyl acetate (4-NPA)); type: tissue-based, Erythrocyte; conditions: erythrocyte; Not Active = under 50% inhibition at 10 µM

CO[C@H]1O[C@@H]2O[C@@]3(C)CC[C@H]4[C@H](C)CC[C@@H]([C@H]1C)[C@@]24OO3
IC50 [1]: Not Active
Ki [1]: Not Active
IC50 [2]: Not Active
IC50 [3]: Not Active
IC50 [4]: Not Active
IC50 ([5]; platelet): Not Active
IC50 [6]: Not Active
IC50 [7]: Not Active

O=c1[nH]c2ccccc2c2ccccc12
IC50 [1]: Not Active
Ki [1]: Not Active
IC50 [2]: Not Active
IC50 [3]: Not Active
IC50 [4]: Not Active
IC50 ([5]; platelet): Not Active
IC50 [6]: Not Active
IC50 [7]: Not Active

COc1ccc(C[C@H](N)C(=O)N[C@H]2[C@@H](O)[C@H](n3cnc4c(N(C)C)ncnc43)O[C@@H]2CO)cc1 [PUROMYCIN]
IC50 [1]: Not Active
Ki [1]: Not Active
IC50 [2]: Not Active
IC50 [3]: Not Active
IC50 [4]: Not Active
IC50 ([5]; platelet): Not Active
IC50 [6]: Not Active
IC50 [7]: Not Active

CHROMIC CHLORIDE
IC50 [1]: Not Active
Ki [1]: Not Active
IC50 [2]: Not Active
Ki [2]: Not Active
IC50 [3]: Not Active
Ki [3]: Not Active
IC50 [4]: Not Active
Ki [4]: Not Active
IC50 ([5]; platelet): Not Active
Ki ([5]; platelet): Not Active
IC50 [6]: Not Active
Ki [6]: Not Active
IC50 [7]: Not Active
Ki [7]: Not Active

C[C@@H]1[C@H](O)[C@@H](C)/C=C/C=C/C=C/C=C/C=C/C=C/C=C/[C@H](O[C@@H]2O[C@H](C)[C@@H](O)[C@H](N)[C@@H]2O)C[C@@H]2O[C@](O)(C[C@@H](O)C[C@@H](O)[C@H](O)CC[C@@H](O)C[C@@H](O)CC(=O)O[C@H]1C)C[C@H](O)[C@H]2C(=O)O [AMPHOTERICIN B]
IC50 [1]: Not Active
Ki [1]: Not Active
IC50 [2]: Not Active
IC50 [3]: Not Active
IC50 [4]: Not Active
IC50 ([5]; platelet): Not Active
IC50 [6]: Not Active
IC50 [7]: Not Active

Cc1c(N)nc([C@H](CC(N)=O)NC[C@H](N)C(N)=O)nc1C(=O)N[C@H](C(=O)N[C@H](C)[C@@H](O)[C@H](C)C(=O)N[C@H](C(=O)NCCc1nc(-c2nc(C(=O)NCCC[S+](C)C)cs2)cs1)[C@@H](C)O)[C@@H](O[C@@H]1O[C@@H](CO)[C@@H](O)[C@H](O)[C@@H]1O[C@H]1O[C@H](CO)[C@@H](O)[C@H](OC(N)=O)[C@@H]1O)c1c[nH]cn1.[Br-] [BLEOMYCIN A2]
IC50 [1]: Not Active
Ki [1]: Not Active
IC50 [2]: Not Active
IC50 [3]: Not Active
IC50 [4]: Not Active
IC50 ([5]; platelet): Not Active
IC50 [6]: Not Active
IC50 [7]: Not Active

O=C(O)CNCP(=O)(O)O [GLYPHOSATE]
IC50 [1]: Not Active
Ki [1]: Not Active
IC50 [2]: Not Active
IC50 [3]: Not Active
IC50 [4]: Not Active
IC50 ([5]; platelet): Not Active
IC50 [6]: Not Active
IC50 [7]: Not Active

Nc1nc(F)nc2c1ncn2[C@@H]1O[C@H](CO)[C@@H](O)[C@@H]1O [FLUDARABINE]
IC50 [1]: Not Active
Ki [1]: Not Active
IC50 [2]: Not Active
IC50 [3]: Not Active
IC50 [4]: Not Active
IC50 ([5]; platelet): Not Active
IC50 [6]: Not Active
IC50 [7]: Not Active

NCC(CC(=O)O)c1ccc(Cl)cc1 (configuration not stated) [BACLOFEN]
IC50 [1]: Not Active
Ki [1]: Not Active
IC50 [2]: Not Active
IC50 [3]: Not Active
IC50 [4]: Not Active
IC50 ([5]; platelet): Not Active
IC50 [6]: Not Active
IC50 [7]: Not Active

O=C(Nc1ccc(Cl)c(Cl)c1)c1cc(Cl)cc(Cl)c1O [3,3',4',5-TETRACHLOROSALICYLANILIDE]
IC50 [1]: Not Active
Ki [1]: Not Active
IC50 [2]: Not Active
IC50 [3]: Not Active
IC50 [4]: Not Active
IC50 ([5]; read-out: IC50): 666 nM
IC50 [6]: Not Active
IC50 [7]: Not Active

Oc1ccccc1 [PHENOL]
IC50 [1]: Not Active
Ki [1]: Not Active
IC50 [2]: Not Active
IC50 [3]: Not Active
IC50 [4]: Not Active
IC50 ([5]; platelet): Not Active
IC50 [6]: Not Active
IC50 [7]: Not Active

CC(C)NCC(O)COc1ccc(CC(N)=O)cc1 (configuration not stated) [ATENOLOL]
IC50 [1]: Not Active
Ki [1]: Not Active
IC50 [2]: Not Active
IC50 [3]: Not Active
IC50 [4]: Not Active
IC50 ([5]; platelet): Not Active
IC50 [6]: Not Active
IC50 [7]: Not Active

CNC[C@H](O)c1ccc(O)c(O)c1 [EPINEPHRINE]
IC50 ([1]; read-out: IC50): 232 nM
Ki ([1]; read-out: Ki): 154 nM
IC50 [2]: Not Active
IC50 [3]: Not Active
IC50 [4]: Not Active
IC50 ([5]; platelet): Not Active
IC50 [6]: Not Active
IC50 [7]: Not Active

CN(Cc1cc(Br)cc(Br)c1N)C1CCCCC1 [BROMHEXINE]
IC50 [1]: Not Active
Ki [1]: Not Active
IC50 [2]: Not Active
IC50 [3]: Not Active
IC50 [4]: Not Active
IC50 ([5]; platelet): Not Active
IC50 [6]: Not Active
IC50 [7]: Not Active

CC(C)Cc1ccc([C@H](C)C(=O)O)cc1 [DEXIBUPROFEN]
IC50 [1]: Not Active
Ki [1]: Not Active
IC50 [2]: Not Active
IC50 [3]: Not Active
IC50 [4]: Not Active
IC50 [6]: Not Active
IC50 [7]: Not Active

CC(C)Cn1cnc2c(N)nc3ccccc3c21 [IMIQUIMOD]
IC50 [1]: Not Active
Ki [1]: Not Active
IC50 [2]: Not Active
IC50 [3]: Not Active
IC50 [4]: Not Active
IC50 ([5]; platelet): Not Active
IC50 [6]: Not Active
IC50 [7]: Not Active

CC(C)(C#N)c1cc(Cn2cncn2)cc(C(C)(C)C#N)c1 [ANASTROZOLE]
IC50 [1]: Not Active
Ki [1]: Not Active
IC50 [2]: Not Active
IC50 [3]: Not Active
IC50 [4]: Not Active
IC50 ([5]; platelet): Not Active
IC50 [6]: Not Active
IC50 [7]: Not Active

POVIDONE
IC50 [1]: Not Active
Ki [1]: Not Active
IC50 [2]: Not Active
Ki [2]: Not Active
IC50 [3]: Not Active
Ki [3]: Not Active
IC50 [4]: Not Active
Ki [4]: Not Active
IC50 ([5]; platelet): Not Active
Ki ([5]; platelet): Not Active
IC50 [6]: Not Active
Ki [6]: Not Active
IC50 [7]: Not Active
Ki [7]: Not Active

COc1ccccc1OCCNCC(O)COc1cccc2[nH]c3ccccc3c12 (configuration not stated) [CARVEDILOL]
IC50 ([1]; read-out: IC50): 1920 nM
Ki ([1]; read-out: Ki): 1280 nM
IC50 [2]: Not Active
IC50 [3]: Not Active
IC50 [4]: Not Active
IC50 ([5]; platelet): Not Active
IC50 [6]: Not Active
IC50 [7]: Not Active

Nc1ccc(Cc2ccc(N)cc2)cc1
IC50 [1]: Not Active
Ki [1]: Not Active
IC50 [2]: Not Active
IC50 [3]: Not Active
IC50 [4]: Not Active
IC50 ([5]; platelet): Not Active
IC50 [6]: Not Active
IC50 [7]: Not Active

CARBOXYMETHYLCELLULOSE
IC50 [1]: Not Active
Ki [1]: Not Active
IC50 [2]: Not Active
Ki [2]: Not Active
IC50 [3]: Not Active
Ki [3]: Not Active
IC50 [4]: Not Active
Ki [4]: Not Active
IC50 ([5]; platelet): Not Active
Ki ([5]; platelet): Not Active
IC50 [6]: Not Active
Ki [6]: Not Active
IC50 [7]: Not Active
Ki [7]: Not Active

c1ccc2sc(SSc3nc4ccccc4s3)nc2c1 [BENZOTHIAZYL DISULFIDE]
IC50 [1]: Not Active
Ki [1]: Not Active
IC50 [2]: Not Active
IC50 [3]: Not Active
IC50 [4]: Not Active
IC50 ([5]; platelet): Not Active
IC50 [6]: Not Active
IC50 [7]: Not Active

NS(=O)(=O)c1cc(C(=O)O)c(NCc2ccco2)cc1Cl [FUROSEMIDE]
IC50 [1]: Not Active
Ki [1]: Not Active
IC50 [2]: Not Active
IC50 [3]: Not Active
IC50 [4]: Not Active
IC50 ([5]; platelet): Not Active
IC50 [6]: Not Active

O=C(O)CCc1nc(-c2ccccc2)c(-c2ccccc2)o1 [OXAPROZIN]
IC50 [1]: Not Active
Ki [1]: Not Active
IC50 [2]: Not Active
IC50 [3]: Not Active
IC50 [4]: Not Active
IC50 [6]: Not Active
IC50 [7]: Not Active
